Measured values from patent publication US9102621B2, “Acyl sulfonamide compounds” (Pfizer Limited, priority 2010, dated 2015).
Counter-ions that a name gives are not always drawn.

What follows are molecules tested against T1, Nav1.7 (or SCN9A) channel (Homo sapiens, UniProt Q15858) (assay: Nav1.7 (hSCN9A) channel block, PatchXpress whole-cell electrophysiology). Conditions: PatchXpress platform; HEK cells stably transfected with hSCN9A; estimated IC-50 calculated from single point % inhibition at V1/2; read-out: Nav1.7 EIC50.
T1 construct: expressed in transfected cells
Type: cell-based
Description: The ability of the compounds of formula (I) to block the Nav1.7 (or SCN9A) channel were measured using the assay described below.
Human Embryonic Kidney (HEK) cells were transfected with an hSCN9A construct using lipofectamine reagent (Invitrogen), using standard techniques. Cells stably expressing the hSCN9A constructs were identified by their resistance to G-418 (400 μg/ml). Clones were screened for expression using the whole-cell voltage-clamp technique.
HEK cells stably transfected with hSCN9A were maintained in DMEM medium supplemented with 10% heat-inactivated fetal bovine serum and 400 μg/ml G-418 in an incubator at 37° C. with a humidified atmosphere of 10% CO2. For HTS, cells were harvested from flasks by trypsinization and replated in an appropriate multi-well plate (typically 96 or 384 wells/plate) such that confluence would be achieved within 24 hours of plating. For electrophysiological studies, cells were removed from the culture flask by brief trypsinization and re-plated at low density onto glass cover slips. Cells were typically used for electrophysiological experiments within 24 to 72 hours after plating.
Cover slips containing HEK cells expressing hSCN9A were placed in a bath on the stage of an inverted microscope and perfused (approximately 1 ml/minutes) with extracellular solution of the following composition: 138 mM NaCl, 2 mM CaCl2, 5.4 mM KCl, 1 mM MgCl2, 10 mM glucose, and 10 mM HEPES, pH 7.4, with NaOH. […] The osmolarity of the extracellular and intracellular solutions was 300 mOsm/kg and 295 mOsm/kg, respectively. All recordings were made at room temperature (22-24° C.) using AXOPATCH 200B amplifiers and PCLAMP software (Axon Instruments, Burlingame, Calif.).
hSCN9A currents in HEK cells were measured using the whole-cell configuration of the patch-clamp technique (Hamill et al., 1981). Uncompensated series resistance was typically 2 to 5 mega ohms and >85% series resistance compensation was routinely achieved. As a result, voltage errors were negligible and no correction was applied. Current records were acquired at 20 to 50 KHz and filtered at 5 to 10 KHz.
HEK cells stably transfected with hSCN9A were viewed under Hoffman contrast optics and placed in front of an array of flow pipes emitting either control or compound-containing extracellular solutions. All compounds were dissolved in dimethyl sulfoxide to make 10 mM stock solutions, which were then diluted into extracellular solution to attain the final concentrations desired. […] The voltage-dependence of inactivation was determined by applying a series of depolarizing prepulses (8 sec long in 10 mV increments) from a negative holding potential. The voltage was then immediately stepped to 0 mV to assess the magnitude of the sodium current. Currents elicited at 0 mV were plotted as a function of prepulse potential to allow estimation of the voltage at which 50% of the channels were inactivated (midpoint of inactivation or V1/2). Compounds were tested for their ability to inhibit hSCN9A sodium channels by activating the channel with a 20 msec voltage step to 0 mV following an 8 second conditioning prepulse to the empirically determined V1/2. Compound effect (% inhibition) was determined by difference in current amplitude before and after application of test compounds. […] Inhibition values <20% and >80% were excluded from the calculation.
Electrophysiological assays were conducted with PatchXpress 7000 hardware and associated software (Molecular Devices Corp). All assay buffers and solutions were identical to those used in conventional whole-cell voltage clamp experiments described above. hSCN9A cells were grown as above to 50%-80% confluency and harvested by trypsinization. Trypsinized cells were washed and resuspended in extracellular buffer at a concentration of 1×10^6 cells/ml. The onboard liquid handling facility of the PatchXpress was used for dispensing cells and application of test compounds. […]

T1 sequence (Q15858 whole entry): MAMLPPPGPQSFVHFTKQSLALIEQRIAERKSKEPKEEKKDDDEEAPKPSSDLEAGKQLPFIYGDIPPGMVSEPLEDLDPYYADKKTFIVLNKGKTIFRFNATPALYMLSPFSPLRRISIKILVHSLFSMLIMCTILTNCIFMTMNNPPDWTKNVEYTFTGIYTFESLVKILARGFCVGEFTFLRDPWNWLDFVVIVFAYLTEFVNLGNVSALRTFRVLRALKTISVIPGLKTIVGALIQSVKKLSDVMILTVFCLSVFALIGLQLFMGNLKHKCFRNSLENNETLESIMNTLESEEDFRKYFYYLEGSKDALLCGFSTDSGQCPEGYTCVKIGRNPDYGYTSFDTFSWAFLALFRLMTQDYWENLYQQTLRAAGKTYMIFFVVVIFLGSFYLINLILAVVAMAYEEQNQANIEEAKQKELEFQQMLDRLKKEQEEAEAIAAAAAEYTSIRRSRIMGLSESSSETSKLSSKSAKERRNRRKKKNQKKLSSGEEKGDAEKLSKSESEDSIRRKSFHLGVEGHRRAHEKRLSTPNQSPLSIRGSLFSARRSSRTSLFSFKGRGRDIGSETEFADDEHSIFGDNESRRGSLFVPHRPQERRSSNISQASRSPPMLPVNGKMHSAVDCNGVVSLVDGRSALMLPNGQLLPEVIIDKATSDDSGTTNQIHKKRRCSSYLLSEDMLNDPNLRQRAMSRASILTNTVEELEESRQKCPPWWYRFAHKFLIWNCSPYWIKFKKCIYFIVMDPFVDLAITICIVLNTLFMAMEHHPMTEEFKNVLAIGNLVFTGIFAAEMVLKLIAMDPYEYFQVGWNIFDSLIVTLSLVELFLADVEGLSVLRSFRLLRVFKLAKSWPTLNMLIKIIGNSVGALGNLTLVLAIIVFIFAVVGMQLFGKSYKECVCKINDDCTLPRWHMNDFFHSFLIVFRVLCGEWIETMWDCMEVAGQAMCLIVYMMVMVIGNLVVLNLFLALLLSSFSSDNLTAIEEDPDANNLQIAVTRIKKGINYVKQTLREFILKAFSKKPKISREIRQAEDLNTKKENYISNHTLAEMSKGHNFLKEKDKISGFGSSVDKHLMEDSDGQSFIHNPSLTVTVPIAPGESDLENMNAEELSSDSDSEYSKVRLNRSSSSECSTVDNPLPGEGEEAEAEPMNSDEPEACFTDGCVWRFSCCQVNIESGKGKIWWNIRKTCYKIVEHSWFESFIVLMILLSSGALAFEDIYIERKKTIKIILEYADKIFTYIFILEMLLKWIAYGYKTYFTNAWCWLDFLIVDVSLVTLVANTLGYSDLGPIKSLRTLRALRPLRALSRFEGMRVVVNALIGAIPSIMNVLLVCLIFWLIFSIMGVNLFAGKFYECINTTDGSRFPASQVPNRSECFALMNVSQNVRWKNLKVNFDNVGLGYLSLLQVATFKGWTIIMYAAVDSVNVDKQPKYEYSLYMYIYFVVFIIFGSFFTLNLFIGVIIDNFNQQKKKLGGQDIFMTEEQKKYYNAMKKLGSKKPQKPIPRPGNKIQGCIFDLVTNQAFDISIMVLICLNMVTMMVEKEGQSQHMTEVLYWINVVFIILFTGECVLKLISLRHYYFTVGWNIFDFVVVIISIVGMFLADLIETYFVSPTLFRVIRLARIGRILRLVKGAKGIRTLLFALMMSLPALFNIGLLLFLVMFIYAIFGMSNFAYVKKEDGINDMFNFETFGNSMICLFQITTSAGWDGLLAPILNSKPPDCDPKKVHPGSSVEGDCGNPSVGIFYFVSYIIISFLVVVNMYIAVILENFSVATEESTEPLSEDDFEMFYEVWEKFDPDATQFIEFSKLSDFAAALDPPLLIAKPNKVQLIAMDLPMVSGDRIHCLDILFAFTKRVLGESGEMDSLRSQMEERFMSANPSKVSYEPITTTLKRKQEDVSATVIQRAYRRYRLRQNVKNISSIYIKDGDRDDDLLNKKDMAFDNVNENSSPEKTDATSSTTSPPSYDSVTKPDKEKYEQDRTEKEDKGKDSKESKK

Structure (SMILES)	IC50 [nM]
CS(=O)(=O)NC(=O)c1cc(Cl)c(COc2cnc(OCC(F)(F)C(F)(F)F)c(Cl)c2)cc1F [Example 46, 5-Chloro-4-({[5-chloro-6-(2,2,3,3,3-pentafluoropropoxy)pyridin-3-yl]oxy}methyl)-2-fluoro-N-(methylsulfonyl)benzamide]	18
COc1cc(COc2cnc(OC(C)C)c(Cl)c2)ccc1C(=O)NS(C)(=O)=O [Example 48, 4-{[(5-Chloro-6-isopropoxypyridin-3-yl)oxy]methyl}-2-methoxy-N-(methylsulfonyl)benzamide]	> 3000
CS(=O)(=O)NC(=O)c1ccc(COc2ccc(Cl)cn2)cc1 [Example 63, 4-{[(5-Chloropyridin-2-yl)oxy]methyl}-N-(methylsulfonyl)benzamide]	6600
[2H]C([2H])([2H])C(Oc1ncc(OCc2cc(F)c(C(=O)NS(C)(=O)=O)cc2Cl)cc1Cl)(C([2H])([2H])[2H])C([2H])([2H])[2H] [Example 32, 4-{[(6-d9-tert-Butoxy-5-chloropyridin-3-yl)oxy]methyl}-5-chloro-2-fluoro-N-(methylsulfonyl)benzamide]	11
COc1cc(COc2cnc(OCC(C)C)c(Cl)c2)ccc1C(=O)NS(C)(=O)=O [Example 47, 4-{[(5-Chloro-6-isobutoxypyridin-3-yl)oxy]methyl}-2-methoxy-N-(methylsulfonyl)benzamide]	4390
[2H]C([2H])([2H])C(Oc1ncc(OCc2cc(F)c(C(=O)NS(C)(=O)=O)cc2F)cc1Cl)(C([2H])([2H])[2H])C([2H])([2H])[2H] [Example 15]	30.8
COc1ncc(COc2ccc(C(=O)NS(C)(=O)=O)cc2Cl)cc1Cl [Example 51]	6230
CC(C)c1ncc2ncc(COc3cc(F)c(C(=O)NS(C)(=O)=O)cc3Cl)cn12 [Example 50]	> 3000
CC(C)(C)Oc1ncc(OCc2cc(F)c(C(=O)NS(C)(=O)=O)cc2F)cc1Cl [Example 18, 4-((6-tert-Butoxy-5-chloropyridin-3-yloxy)methyl)-2,5-difluoro-N-(methylsulfonyl)benzamide]	80.6
[2H]C([2H])([2H])C([2H])(Oc1ncc(OCc2cc(F)c(C(=O)NS(C)(=O)=O)cc2Cl)cc1Cl)C([2H])([2H])[2H] [Example 39, 5-Chloro-4-{[(5-chloro-6-d7-isopropoxypyridin-3-yl)oxy]methyl}-2-fluoro-N-(methylsulfonyl)benzamide]	39.9
CS(=O)(=O)NC(=O)c1ccc(COc2cncc(Cl)c2)cc1 [Example 10, 4-((5-Chloropyridin-3-yloxy)methyl)-N-(methylsulfonyl)benzamide]	8460
CS(=O)(=O)NC(=O)c1cc(Cl)c(COc2cnc(C3CC3)c(C3CC3)c2)cc1F [Example 57, 5-Chloro-4-{[(5,6-dicyclopropylpyridin-3-yl)oxy]methyl}-2-fluoro-N-(methylsulfonyl)benzamide diethylamine salt.]	153
CC(C)(C)c1ncc(OCc2cc(F)c(C(=O)NS(C)(=O)=O)cc2Cl)cc1Cl [Example 38, 4-{[(6-tert-Butyl-5-chloropyridin-3-yl)oxy]methyl}-5-chloro-2-fluoro-N-(methylsulfonyl)benzamide]	21.5
CS(=O)(=O)NC(=O)c1ccc(COc2cccc3cnccc23)cc1 [Example 52]	> 3000
COc1ccc(OCc2ccc(C(=O)NS(C)(=O)=O)cc2)cn1 [Example 7, 4-{[(6-Methoxypyridin-3-yl)oxy]methyl}-N-(methylsulfonyl)benzamide]	35700
CC(C)COc1ncc(OCc2cc(F)c(C(=O)NS(C)(=O)=O)cc2F)cc1Cl [Example 1, 4-{[(5-Chloro-6-isobutoxypyridin-3-yl)oxy]methy}-2,5-difluoro-N-(methylsulfonyl)benzamide diethylamine salt]	13.9

Results, then the molecule that gave them:

IC50 [nM]	Structure (SMILES)
62.3	CS(=O)(=O)NC(=O)c1cc(Cl)c(COc2cnc(OC(F)F)c(Cl)c2)cc1F [Example 41, 5-Chloro-4-({[5-chloro-6-(difluoromethoxy)pyridin-3-yl]oxy}methyl)-2-fluoro-N-(methylsulfonyl)benzamide]
843	CS(=O)(=O)NC(=O)c1cc(F)c(COc2cnc(C(F)(F)F)c(Cl)c2)cc1F [Example 12, 4-({[5-Chloro-6-(trifluoromethyl)pyridin-3-yl]oxy}methyl)-2,5-difluoro-N-(methylsulfonyl)benzamide]
838	CC(C)Oc1ncc(COc2cc(F)c(C(=O)NS(C)(=O)=O)cc2F)cc1Cl [Example 29, 4-((5-Chloro-6-isopropoxypyridin-3-yl)methoxy)-2,5-difluoro-N-(methylsulfonyl)benzamide diethylamine salt]
25.8	CS(=O)(=O)NC(=O)c1cc(Cl)c(COc2cnc(OCCC(F)(F)F)c(Cl)c2)cc1F [Example 44, 5-Chloro-4-({[5-chloro-6-(3,3,3-trifluoropropoxy)pyridin-3-yl]oxy}methyl)-2-fluoro-N-(methylsulfonyl)benzamide]
18.6	CS(=O)(=O)NC(=O)c1cc(F)c(COc2cnc(OCC(F)(F)C(F)(F)F)c(Cl)c2)cc1F [Example 25, 4-({[5-Chloro-6-(2,2,3,3,3-pentafluoropropoxy)pyridin-3-yl]oxy}methyl)-2,5-difluoro-N-(methylsulfonyl)benzamide]
42	CC(Oc1ncc(OCc2cc(F)c(C(=O)NS(C)(=O)=O)cc2F)cc1Cl)C(F)(F)F (stereo not drawn) [Example 27, 4-((5-Chloro-6-(1,1,1-trifluoropropan-2-yloxy)pyridin-3-yloxy)methyl)-2,5-difluoro-N-(methylsulfonyl)benzamide]
51.8	CS(=O)(=O)NC(=O)c1cc(Cl)c(COc2cnc(C3CC3)c(Cl)c2)cc1F [Example 42, 5-Chloro-4-{[(5-chloro-6-cyclopropylpyridin-3-yl)oxy]methyl}-2-fluoro-N-(methylsulfonyl)benzamide]
28	CC(C)Oc1ncc(OCc2cc(F)c(C(=O)NS(C)(=O)=O)cc2Cl)cc1Cl [Example 35, 5-Chloro-4-((5-chloro-6-isopropoxypyridin-3-yloxy)methyl)-2-fluoro-N-(methylsulfonyl)benzamide]
9.2	CS(=O)(=O)NC(=O)c1cc(F)c(COc2cnc(OCC(F)(F)C(F)F)c(Cl)c2)cc1F [Example 22, 4-({[5-Chloro-6-(2,2,3,3-tetrafluoropropoxy)pyridin-3-yl]oxy}methyl)-2,5-difluoro-N-(methylsulfonyl)benzamide]
82.2	[2H]C(C)(C)Oc1ncc(OCc2cc(F)c(C(=O)NS(C)(=O)=O)cc2Cl)cc1Cl [Example 34, 5-Chloro-4-{[(5-chloro-6-d1-isopropoxypyridin-3-yl)oxy]methyl}-2-fluoro-N-(methylsulfonyl)benzamide]
730	CS(=O)(=O)NC(=O)c1cc(F)c(COc2cnc(OCC3CC(F)(F)C3)c(Cl)c2)cc1F [Example 19, 4-((5-Chloro-6-((3,3-difluorocyclobutyl)methoxy)pyridin-3-yloxy)methyl)-2,5-difluoro-N-(methylsulfonyl)benzamide]
66.8	CC1(COc2ncc(OCc3cc(F)c(C(=O)NS(C)(=O)=O)cc3F)cc2Cl)CC1 [Example 14, 4-((5-Chloro-6-((1-methylcyclopropyl)methoxy)pyridin-3-yloxy)methyl)-2,5-difluoro-N-(methylsulfonyl)benzamide]
156	CS(=O)(=O)NC(=O)c1cc(F)c(COc2cnc(OCC3CC3)c(Cl)c2)cc1F [Example 17, 4-((5-Chloro-6-(cyclopropylmethoxy)pyridin-3-yloxy)methyl)-2,5-difluoro-N-(methylsulfonyl)benzamide]
> 3000	CS(=O)(=O)NC(=O)c1cc(F)c(COc2ncc(Cl)cc2Cl)cc1F [Example 60, 4-{[(3,5-dichloropyridin-2-yl)oxy]methyl}-2,5-difluoro-N-(methylsulfonyl)benzamide]
